# Values quoted from earlier work, collected in patent publication US20140255430A1, “METHODS AND REAGENTS FOR DETECTION AND TREATMENT OF ESOPHAGEAL METAPLASIA” (NATIONAL UNIVERSITY OF SINGAPORE, priority 2010, published 2014).
# Biological target: T1, PPARgamma (Homo sapiens, UniProt P37231)
# T1 sequence (P37231 1-505): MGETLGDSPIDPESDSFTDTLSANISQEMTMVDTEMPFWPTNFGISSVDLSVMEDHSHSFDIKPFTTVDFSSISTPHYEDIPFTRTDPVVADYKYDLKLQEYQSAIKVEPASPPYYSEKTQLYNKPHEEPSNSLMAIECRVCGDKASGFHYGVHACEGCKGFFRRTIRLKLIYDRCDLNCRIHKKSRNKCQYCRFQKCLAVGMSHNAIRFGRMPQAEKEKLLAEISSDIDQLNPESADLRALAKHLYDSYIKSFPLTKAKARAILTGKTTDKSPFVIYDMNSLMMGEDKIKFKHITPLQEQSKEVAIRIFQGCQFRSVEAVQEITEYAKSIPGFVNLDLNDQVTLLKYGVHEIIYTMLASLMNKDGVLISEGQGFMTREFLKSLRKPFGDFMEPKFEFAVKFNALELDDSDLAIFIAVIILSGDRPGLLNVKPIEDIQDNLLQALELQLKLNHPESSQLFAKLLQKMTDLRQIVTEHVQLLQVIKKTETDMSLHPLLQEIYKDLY
# Conditions: irreversible inhibitor
smiles,measurement,value
"O=C(Nc1ccccc1)c1cc([N+](=O)[O-])ccc1Cl [GW-9662, 2-Chloro-5-nitro-N-phenyl-benzamide]",IC50 for suppression of PPARgamma,nanomolar
